Source: patent publication US7432260B2, “Pyrimidine compounds” (Cyclacel Limted, priority 2002, dated 2008)

Key:
CDK1/cyclin B = CDK1/cyclin B (Homo sapiens, UniProt P06493); test: Kinase assay CDK1/cyclin B; assay type: biochemical; details: Table 2; read-out: Kinase Inhibition IC50 CDK1 cyclin B
Method: (§1) Kinase assays. […] This was achieved by measurement of incorporation of radioactive phosphate from ATP into appropriate polypeptide substrates. Recombinant protein kinases and kinase complexes were produced or obtained commercially. Assays were performed using 96-well plates and appropriate assay buffers (typically 25 mM β-glycerophosphate, 20 mM MOPS, 5 mM EGTA, 1 mM DTT, 1 mM […], pH 7.4), into which were added 2-4 μg of active enzyme with appropriate substrates. The reactions were initiated by addition of Mg/ATP mix (15 mM MgCl2+100 μM ATP with 30-50 kBq per well of [γ-^32P]-ATP) and mixtures incubated as required at 30° C. Reactions were stopped on ice, followed by filtration through p81 filterplates or GF/C filterplates (Whatman Polyfiltronics, Kent, UK). After washing 3 times with 75 mM aq orthophosphoric acid, plates were dried, scintillant added and incorporated radioactivity measured in a scintillation counter (TopCount, Packard Instruments, Pangbourne, Berks, UK). Compounds for kinase assay were made-up as 10 mM stocks in DMSO and diluted into 10% DMSO inrassay buffer.

CDK2/cyclin A = CDK2/cyclin A (Homo sapiens, UniProt P24941); test: Kinase assay CDK2/cyclin A; assay type: biochemical; details: Table 2; read-out: Kinase Inhibition IC50 CDK2 cyclin A
Method: as §1

CDK2/cyclin E = CDK2/cyclin E (Homo sapiens, UniProt P24941); test: Kinase assay CDK2/cyclin E; assay type: biochemical; details: Table 2; read-out: Kinase Inhibition IC50 CDK2 cyclin E
Method: as §1

CDK7/cyclin H = CDK7/cyclin H (Homo sapiens, UniProt P50613); test: CDK7 assay; assay type: biochemical; details: Table 2; read-out: Kinase Inhibition IC50 CDK7 cyclin H
Method: as §1
(§2) CDK 7 and 9 assays. CTD peptide substrate (biotinyl-Ahx-(Tyr-Ser-Pro-Thr-Ser-Pro-Ser)4-NH2; 1-2 mg/mL) and recombinant human CDK7/cyclin H, CDK9/cyclin T1, or CDK9/cyclin K (0.5-2 μg) were incubated for 45 min at 30° C. in the presence of varying amounts of test compound in 20 mM MOPS pH 7.2, 25 mM β-glycerophosphate, 5 mM EGTA, 1 mM DTT, 1 mM sodium vanadate, 15 mM MgCl2, and 100 μM ATP (containing a trace amount of ^32PγATP) in a total volume of 25 μL in a 96-well microtiter plate. The reaction was stopped by placing the plate on ice for 2 min. Avidin (50 μg) was added to each well, and the plate was incubated at room temp for 30 min. The samples were transferred to a 96-well P81 filter plate, and washed (4×200 μL per well) with 75 mM phosphoric acid. Microscint 40 scintillation liquid (50 μL) was added to each well, and the amount of ^32P incorporation for each sample was measured using a Packard Topcount microplate scintillation counter.

CDK9/cyclin T1 = CDK9/cyclin T1 (Homo sapiens, UniProt P50750); test: CDK9 assay; assay type: biochemical; details: Table 2; read-out: Kinase Inhibition IC50 CDK9 cyclin T1
Method: as §1, §2

GSK-3β = GSK-3β (Homo sapiens, UniProt P49841); test: Kinase assay GSK-3β; assay type: biochemical; details: Table 2; read-out: Kinase Inhibition IC50 GSK-3β
Method: as §1

A549 = test: 72-h MTT cytotoxicity assay A549; assay type: cell-based; details: Homo sapiens, A549, 72 h, Table 4
Method: (§3) MTT cytotoxicity assay. […] Standard 72-h MTT (thiazolyl blue; 3-[4,5-dimethylthiazol-2-yl]-2,5-diphenyltetrazolium bromide) assays were performed (Haselsberger, K.; Peterson, D. C.; Thomas, D. G.; Darling, J. L. Anti Cancer Drugs 1996, 7, 331-8; Loveland, B. E.; Johns, T. G.; Mackay, I. R.; Vaillant, F.; Wang, Z. X.; Hertzog, P. J. Biochemistry International 1992, 27, 501-10). In short: cells were seeded into 96-well plates according to doubling time and incubated overnight at 37° C. Test compounds were made up in DMSO and a 1/3 dilution series prepared in 100 μL cell media, added to cells (in triplicates) and incubated for 72 ho at 37° C. MTT was made up as a stock of 5 mg/mL in cell media and filter-sterilised. Media was removed from cells followed by a wash with 200 μL PBS.
(§4) MTT solution was then added at 20 μL per well and incubated in the dark at 37° C. for 4 h. MTT solution was removed and cells again washed with 200 μL PBS. MTT dye was solubilised with 200 μL per well of DMSO with agitation.

HT29 = test: 72-h MTT cytotoxicity assay HT29; assay type: cell-based; details: Homo sapiens, HT-29, 72 h, Table 4
Method: as §3, §4

Saos-2 = test: 72-h MTT cytotoxicity assay Saos-2; assay type: cell-based; details: Homo sapiens, SAOS-2, 72 h, Table 4
Method: as §3, §4

CDK4/cyclin D1 = CDK4/cyclin D1 (Homo sapiens, UniProt P11802); test: Kinase assay CDK4/cyclin D1; assay type: biochemical; details: Table 2; read-out: Kinase Inhibition IC50 CDK4 cyclin D1
Method: as §1

PLK-1 = PLK-1 (Homo sapiens, UniProt P53350); test: Kinase assay PLK-1; assay type: biochemical; details: Table 2; read-out: Kinase Inhibition IC50 PLK-1
Method: as §1

Chain of CDK7/cyclin H (P50613 whole entry): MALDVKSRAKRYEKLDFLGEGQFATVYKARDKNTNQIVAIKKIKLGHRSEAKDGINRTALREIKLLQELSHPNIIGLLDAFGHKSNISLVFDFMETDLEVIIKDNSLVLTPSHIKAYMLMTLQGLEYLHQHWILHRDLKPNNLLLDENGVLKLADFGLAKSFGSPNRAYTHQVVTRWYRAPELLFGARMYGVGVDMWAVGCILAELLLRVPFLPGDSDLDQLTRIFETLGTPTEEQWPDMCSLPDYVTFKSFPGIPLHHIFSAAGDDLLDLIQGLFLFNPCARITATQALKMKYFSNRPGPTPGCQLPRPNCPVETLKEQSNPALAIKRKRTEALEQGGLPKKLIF
Chain of CDK9/cyclin T1 (P50750 whole entry): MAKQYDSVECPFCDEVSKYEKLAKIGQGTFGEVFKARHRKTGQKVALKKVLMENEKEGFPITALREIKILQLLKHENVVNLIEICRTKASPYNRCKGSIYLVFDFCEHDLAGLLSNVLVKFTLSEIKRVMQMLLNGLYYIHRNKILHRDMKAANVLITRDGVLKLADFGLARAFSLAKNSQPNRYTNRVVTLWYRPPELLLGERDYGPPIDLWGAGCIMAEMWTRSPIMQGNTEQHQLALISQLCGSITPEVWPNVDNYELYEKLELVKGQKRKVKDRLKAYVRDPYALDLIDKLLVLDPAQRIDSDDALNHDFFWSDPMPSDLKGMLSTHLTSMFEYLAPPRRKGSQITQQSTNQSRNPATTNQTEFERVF
Chain of CDK9/cyclin T1 (O60563 whole entry partner): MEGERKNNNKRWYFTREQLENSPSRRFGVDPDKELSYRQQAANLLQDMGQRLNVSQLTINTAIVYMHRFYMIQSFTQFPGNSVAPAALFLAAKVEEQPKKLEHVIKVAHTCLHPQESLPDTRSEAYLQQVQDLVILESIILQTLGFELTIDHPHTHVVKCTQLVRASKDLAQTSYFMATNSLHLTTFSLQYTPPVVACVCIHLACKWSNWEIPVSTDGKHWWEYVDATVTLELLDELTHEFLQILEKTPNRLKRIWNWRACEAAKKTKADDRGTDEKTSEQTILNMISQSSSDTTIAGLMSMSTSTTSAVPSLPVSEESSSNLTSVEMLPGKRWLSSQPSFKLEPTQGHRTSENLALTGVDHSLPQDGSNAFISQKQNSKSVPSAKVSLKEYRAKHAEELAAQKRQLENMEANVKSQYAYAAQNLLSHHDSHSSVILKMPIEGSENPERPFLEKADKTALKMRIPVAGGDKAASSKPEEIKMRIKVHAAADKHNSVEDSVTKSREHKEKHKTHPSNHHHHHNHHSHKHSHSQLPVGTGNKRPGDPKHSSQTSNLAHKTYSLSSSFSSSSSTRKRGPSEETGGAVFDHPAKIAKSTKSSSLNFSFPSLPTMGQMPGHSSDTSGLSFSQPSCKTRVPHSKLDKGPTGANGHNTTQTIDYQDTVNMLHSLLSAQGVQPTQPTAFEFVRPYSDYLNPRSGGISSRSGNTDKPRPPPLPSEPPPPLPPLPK
Chain of CDK4/cyclin D1 (P11802 whole entry): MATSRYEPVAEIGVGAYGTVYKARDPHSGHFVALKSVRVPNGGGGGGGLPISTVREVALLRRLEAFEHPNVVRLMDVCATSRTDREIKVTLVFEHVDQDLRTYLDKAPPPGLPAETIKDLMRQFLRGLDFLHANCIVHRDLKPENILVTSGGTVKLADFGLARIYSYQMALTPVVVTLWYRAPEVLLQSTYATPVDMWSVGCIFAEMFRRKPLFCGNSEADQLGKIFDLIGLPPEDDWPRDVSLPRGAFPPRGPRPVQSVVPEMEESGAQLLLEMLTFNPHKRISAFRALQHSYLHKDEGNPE
Chain of CDK4/cyclin D1 (P24385 whole entry partner): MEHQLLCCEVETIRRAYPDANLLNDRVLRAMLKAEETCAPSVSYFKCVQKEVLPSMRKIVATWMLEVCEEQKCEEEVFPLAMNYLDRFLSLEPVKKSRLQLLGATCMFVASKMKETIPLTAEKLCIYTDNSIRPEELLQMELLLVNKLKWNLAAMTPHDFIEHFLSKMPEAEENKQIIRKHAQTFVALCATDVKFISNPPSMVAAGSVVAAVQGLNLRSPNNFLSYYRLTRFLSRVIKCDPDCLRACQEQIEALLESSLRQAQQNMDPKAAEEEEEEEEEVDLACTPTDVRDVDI
Chain of PLK-1 (P53350 whole entry): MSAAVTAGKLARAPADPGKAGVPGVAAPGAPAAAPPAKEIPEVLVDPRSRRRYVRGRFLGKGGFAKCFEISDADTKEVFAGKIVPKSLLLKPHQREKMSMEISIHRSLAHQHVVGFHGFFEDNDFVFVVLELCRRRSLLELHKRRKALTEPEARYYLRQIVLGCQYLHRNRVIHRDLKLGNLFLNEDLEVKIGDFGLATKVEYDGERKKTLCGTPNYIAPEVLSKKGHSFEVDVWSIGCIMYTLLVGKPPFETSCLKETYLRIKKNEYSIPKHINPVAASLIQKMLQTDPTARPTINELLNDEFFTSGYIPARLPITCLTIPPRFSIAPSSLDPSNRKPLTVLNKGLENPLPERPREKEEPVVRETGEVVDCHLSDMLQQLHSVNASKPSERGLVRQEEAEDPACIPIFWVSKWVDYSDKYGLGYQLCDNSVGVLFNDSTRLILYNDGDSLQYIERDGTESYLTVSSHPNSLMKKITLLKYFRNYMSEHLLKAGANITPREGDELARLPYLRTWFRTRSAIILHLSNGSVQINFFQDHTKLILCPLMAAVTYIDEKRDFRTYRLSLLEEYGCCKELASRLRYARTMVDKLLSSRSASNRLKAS
Chain of CDK1/cyclin B (P06493 whole entry): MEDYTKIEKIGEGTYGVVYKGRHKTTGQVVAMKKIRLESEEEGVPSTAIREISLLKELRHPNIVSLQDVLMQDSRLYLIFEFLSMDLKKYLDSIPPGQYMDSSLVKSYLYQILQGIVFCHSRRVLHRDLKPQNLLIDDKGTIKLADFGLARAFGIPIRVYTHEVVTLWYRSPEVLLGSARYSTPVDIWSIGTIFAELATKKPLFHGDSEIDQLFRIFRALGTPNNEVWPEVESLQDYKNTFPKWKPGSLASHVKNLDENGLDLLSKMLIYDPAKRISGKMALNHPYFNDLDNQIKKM
Chain of CDK1/cyclin B (P14635 whole entry partner): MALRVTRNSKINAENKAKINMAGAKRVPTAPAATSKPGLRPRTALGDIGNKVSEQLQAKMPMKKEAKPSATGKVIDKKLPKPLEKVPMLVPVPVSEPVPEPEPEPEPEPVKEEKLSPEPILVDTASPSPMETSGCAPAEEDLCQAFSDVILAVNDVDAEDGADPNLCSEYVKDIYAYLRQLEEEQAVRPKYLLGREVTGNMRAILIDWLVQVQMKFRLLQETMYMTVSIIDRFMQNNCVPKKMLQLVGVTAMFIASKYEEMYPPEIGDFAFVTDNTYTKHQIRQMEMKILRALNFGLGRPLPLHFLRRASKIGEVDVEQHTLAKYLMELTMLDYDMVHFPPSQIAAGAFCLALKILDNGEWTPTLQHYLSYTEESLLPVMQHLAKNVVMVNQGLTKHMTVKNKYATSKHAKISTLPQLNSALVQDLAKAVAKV
Chain of GSK-3β (P49841 whole entry): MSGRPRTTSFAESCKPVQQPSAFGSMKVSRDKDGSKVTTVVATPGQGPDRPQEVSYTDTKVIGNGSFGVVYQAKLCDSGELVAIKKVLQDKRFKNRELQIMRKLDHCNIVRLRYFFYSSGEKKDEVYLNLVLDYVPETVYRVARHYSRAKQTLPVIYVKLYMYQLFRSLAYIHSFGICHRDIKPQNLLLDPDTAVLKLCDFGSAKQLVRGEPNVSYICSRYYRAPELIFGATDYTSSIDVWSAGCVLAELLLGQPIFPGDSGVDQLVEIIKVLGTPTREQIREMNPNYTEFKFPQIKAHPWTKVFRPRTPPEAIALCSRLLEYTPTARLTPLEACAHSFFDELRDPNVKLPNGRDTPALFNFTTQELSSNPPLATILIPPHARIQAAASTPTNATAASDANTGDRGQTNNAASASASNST

IC50 (CDK1/cyclin B) [µM]	IC50 (CDK2/cyclin A) [µM]	IC50 (CDK2/cyclin E) [µM]	IC50 (CDK7/cyclin H) [µM]	IC50 (CDK9/cyclin T1) [µM]	IC50 (GSK-3β) [µM]	IC50 (CDK4/cyclin D1) [µM]	IC50 (PLK-1) [µM]	Compound	IC50 (A549) [µM]	IC50 (HT29) [µM]	IC50 (Saos-2) [µM]
0.33	0.006	0.22	2.4	4.2	2.4	–	–	Cc1nc(N2CCOCC2)sc1-c1ccnc(Nc2cccc([N+](=O)[O-])c2)n1 [Compound 71, [4-(4-Methyl-2-morpholin-4-yl-thiazol-5-yl)-pyrimidin-2-yl]-(3-nitro-phenyl)-amine]	80	71	10
0.74	0.31	0.08	0.59	0.1	2.1	0.13	18	CCNc1nc(C)c(-c2ccnc(Nc3cccc(CNC(C)=O)c3)n2)s1 [Compound 64, N-{3-[4-(2-Ethylamino-4-methyl-thiazol-5-yl)-pyrimidin-2-ylamino]-benzyl}-acetamide]	0.19	0.41	0.34
9.4	3	0.22	3.2	0.68	0.083	0.97	–	Cc1nc(NC(=O)CCl)sc1-c1ccnc(Nc2cccc(Cl)c2)n1 [Compound 25, 2-Chloro-N-{5-[2-(3-chloro-phenylamino)-pyrimidin-4-yl]-4-methyl-thiazol-2-yl}-acetamide]	0.97	1.3	1.6
2.4	61	0.079	2.2	2.1	67	1	–	Cc1nc(N2CCOCC2)sc1-c1ccnc(Nc2cccc(O)c2)n1 [Compound 55, 3-[4-(4-Methyl-2-morpholin-4-yl-thiazol-5-yl)-pyrimidin-2-ylamino]-phenol]	2.3	5.1	1.4
62	12	0.73	9.6	4.1	48	25	–	Cc1nc(C)c(-c2ccnc(Nc3ccc(Cl)c(CO)c3)n2)s1 [Compound 72, {2-Chloro-5-[4-(2,4-dimethyl-thiazol-5-yl)-pyrimidin-2-ylamino]-phenyl}-methanol]	32	20	18
4.4	1.1	0.84	0.36	0.3	0.43	0.51	–	Cc1c(-c2ccnc(Nc3ccc(N4CCN(C)CC4)cc3)n2)sc(=O)n1C [Compound 93, 3,4-Dimethyl-5-{2-[4-(4-methyl-piperazin-1-yl)-phenylamino]-pyrimidin-4-yl}-3H-thiazol-2-one]	–	–	–
5.6	–	–	5.6	6.1	21	1.7	35	CC(=O)N1CCN(c2ccc(Nc3nccc(-c4sc(C)nc4C)n3)cc2)CC1 [Compound 5, 1-(4-{4-[4-(2,4-Dimethyl-thiazol-5-yl)-pyrimidin-2-ylamino]-phenyl}-piperazin-1-yl)-ethanone]	3.8	2.2	3.9
–	–	0.005	–	0.0014	0.21	1.1	–	Cc1nc(NS(C)(=O)=O)sc1-c1ccnc(Nc2cccc([N+](=O)[O-])c2)n1 [Compound 32, N-{4-Methyl-5-[2-(3-nitro-phenylamino)-pyrimidin-4-yl]-thiazol-2-yl}-methanesulfonamide]	0.1	0.17	0.16
1.3	57	0.098	2.1	0.11	19	0.032	–	Cc1nc(C)c(-c2ccnc(Nc3ccc(NC(=O)Cn4ccnc4)cc3)n2)s1 [Compound 54, N-{4-[4-(2,4-Dimethyl-thiazol-5-yl)-pyrimidin-2-ylamino]-phenyl}-2-imidazol-1-yl-acetamide]	2.9	2.7	1.9
2.5	–	–	2.3	1.5	6.8	0.042	–	CNc1nc(C)c(-c2ccnc(Nc3ccc(N4CCN(C(C)=O)CC4)cc3)n2)s1 [Compound 61, 1-(4-{4-[4-(4-Methyl-2-methylamino-thiazol-5-yl)-pyrimidin-2-ylamino]-phenyl}-piperazin-1-yl)-ethanone]	0.72	0.53	1
7.7	73	0.35	0.19	12	74	0.071	–	Cc1nc(N2CCOCC2)sc1-c1ccnc(Nc2ccc(N(C)C)cc2)n1 [Compound 57, N,N-Dimethyl-N′-[4-(4-methyl-2-morpholin-4-yl-thiazol-5-yl)-pyrimidin-2-yl]-benzene-1,4-diamine]	2.7	0.24	3.8
1.7	1.3	1	2	0.55	5.2	0.23	–	CNc1nc(C)c(-c2ccnc(Nc3ccc(Cl)c(CO)c3)n2)s1 [Compound 73, {2-Chloro-5-[4-(4-methyl-2-methylamino-thiazo1-5-yl)-pyrimidin-2-ylamino]-phenyl}-methanol]	1.5	5.5	2.9
72	1	0.15	1	0.26	6.1	3.4	–	CNc1nc(C)c(-c2ccnc(Nc3ccc(OCCOC)c([N+](=O)[O-])c3)n2)s1 [Compound 77, [4-(2-Methoxy-ethoxy)-3-nitro-phenyl]-[4-(4-methyl-2-methylamino-thiazol-5-yl)-pyrimidin-2-yl]-amine]	0.31	0.21	0.35
75	–	–	97	23	> 100	3.9	> 100	Cc1nc(C)c(-c2ccnc(Nc3ccc(N4CCOCC4)cc3)n2)s1 [Compound 2, [4-(2,4-Dimethyl-thiazol-5-yl)-pyrimidin-2-yl]-(4-morpholin-4-yl-phenyl)-amine]	3.5	3.3	4.8
